Columns and labels:
FSHR = target: T1, FSHR (Homo sapiens, UniProt P23945); experiment: EC50 of Cyclic AMP Production in CHO FSHR Cells+EC20 FSH (Assay A); type: cell-based; details: for EC50: cAMP HTRF
T1 construct: expressed in transfected cells; host or cells: CHO (Cho-FSHR-LUC-1-1-43)
T1 sequence (P23945 18-695): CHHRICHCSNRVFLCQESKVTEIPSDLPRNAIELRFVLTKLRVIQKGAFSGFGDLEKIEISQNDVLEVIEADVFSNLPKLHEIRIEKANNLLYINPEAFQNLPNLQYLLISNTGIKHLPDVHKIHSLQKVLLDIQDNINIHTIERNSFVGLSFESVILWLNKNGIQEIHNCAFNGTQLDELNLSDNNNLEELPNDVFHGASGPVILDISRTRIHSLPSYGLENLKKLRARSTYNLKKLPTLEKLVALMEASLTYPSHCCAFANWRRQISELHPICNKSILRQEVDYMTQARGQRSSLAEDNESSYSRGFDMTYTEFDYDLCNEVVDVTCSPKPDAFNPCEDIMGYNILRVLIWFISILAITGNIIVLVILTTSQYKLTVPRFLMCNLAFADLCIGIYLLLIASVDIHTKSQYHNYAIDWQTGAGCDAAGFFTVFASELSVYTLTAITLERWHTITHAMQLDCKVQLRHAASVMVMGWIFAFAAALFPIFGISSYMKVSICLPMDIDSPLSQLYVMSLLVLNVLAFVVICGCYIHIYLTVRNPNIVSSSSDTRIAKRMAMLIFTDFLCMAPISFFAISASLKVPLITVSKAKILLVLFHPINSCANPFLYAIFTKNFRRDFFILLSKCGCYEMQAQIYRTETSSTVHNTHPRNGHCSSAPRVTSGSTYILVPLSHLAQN
Protocol: Example 17: EC50 of Cyclic AMP Production in CHO FSHR Cells+EC20 FSH (Assay A)
2500 Cho-FSHR-LUC-1-1-43 cells were plated per well in 5 μl of phenol red free DMEM/F12+1% FBS. Cells were plated in 384 well, solid white low volume plates (Greiner 784075) by Multidrop. Cells were assayed by adding 100 μl of 2×EC20 FSH/IBMX in DMEM/F12+0.1% BSA) by Multidrop to 2 μl of test compound stamped in 384 well plates (compounds are diluted 1:50). The final FSH concentration was […], and the final IBMX concentration was 200 μM. The compound plate map was as follows: Column 1: 2 μl of DMSO; Column 2: 2 μl of DMSO; Columns 3-12 and 13-24: 2 μl of test compound, diluted 1:4 in 100% DMSO, or 2 μl of FSH, diluted 1:4 in DMEM/F12+0.1% BSA. The starting concentration for FSH was 50 nM (final concentration was 0.5 nM). Furthermore, Column 23 contained 2 μl of EC100 FSH reference (100×) (diluted in DMEM/F12+0.1% BSA) at a final concentration of 0.5 nM, and Column 24 contained 2 μl of 1 mM AS707664/2 reference compound 2.5 μl of compound+EC20 FSH mixture were transferred to cell plates (1:2 dilution into 5 μl of cell media) The plates were incubated at 37° C. for 1 h. 10 μl of mixed HTRF (CisBio #62AM4PEC) reagents were added per well and incubated at room temperature for 1 h. The plates were read on Envision using the cAMP HTRF—low volume 384 well protocol. The readout was the calculated fluorescence ratio (665 nm/620 nm). Values given in percent (%) indicate the percental effect (response) at a certain concentration of agonist relative to the maximum response of the FSH standard.

Rat Granulosa = Rat Granulosa EC50 FSH (Assay B); type: cell-based; details: rat granulosa cells
Protocol: Example 18: Rat Granulosa EC50 FSH (Assay B)
The assay was performed pursuant to the teaching of Yanofsky et al. (2006) Allosteric activation of the follicle-stimulating hormone (FSH) receptor by selective, nonpeptide agonists. JBC 281(19): 13226-13233, which is incorporated by reference in the disclosure of the invention.

EC50 (FSHR) [µM] | EC50 (Rat Granulosa) [µM] | SMILES | other results
< 0.1 | 0.1 to 1 | Cc1ccccc1N1CCN(c2cc(Cl)c(C(=O)NCCCN3CCCC3=O)cc2NC(=O)c2coc(C3CC3)n2)CC1 | 
< 0.1 | 1 to 5 | COc1cc(N2CCN(c3ccccc3C)CC2)c(NC(=O)c2coc(C3CC3)n2)cc1C(=O)NCCCN1CCCC1=O | 
0.1 to 1 |  | Cc1ccccc1N1CCN(c2cc(O)c(C(=O)NCCCN3CCCC3=O)cc2NC(=O)c2coc(C3CC3)n2)CC1 | 
0.1 to 1 |  | Cc1ccccc1N1CCN(c2cc(F)c(C(=O)NCCCN3CCCC3=O)cc2NC(=O)c2coc(C3CC3)n2)CC1 | 
0.1 to 1 |  | Cc1ccc(C)c(N2CCN(c3cc(Cl)c(C(=O)NCCCN4CCCC4=O)cc3NC(=O)c3coc(C4CC4)n3)CC2)c1 | 
1 to 5 |  | Cc1ccc(C)c(N2CCN(c3cc(Cl)c(C(=O)NCc4cccc(CN(C)C)c4)cc3NC(=O)c3coc(C4CC4)n3)CC2)c1 | 
0.1 to 1 | 0.1 to 1 | CCc1cc(N2CCN(c3ccccc3C)CC2)c(NC(=O)c2coc(C3CC3)n2)cc1C(=O)NCCCN1CCCC1=O | 
0.1 to 1 | 0.1 to 1 | Cc1ccccc1N1CCN(c2cc(N(C)C)c(C(=O)NCCCN3CCCC3=O)cc2NC(=O)c2coc(C3CC3)n2)CC1 | 
> 5 |  | Cc1ccccc1N1CCN(c2cc(Cl)c(C(=O)NCc3cccc(CN(C)C)c3)cc2NC(=O)c2ccco2)CC1 | 
< 0.1 | 0.1 to 1 | CCOc1cc(N2CCN(c3ccccc3C)CC2)c(NC(=O)c2coc(C3CC3)n2)cc1C(=O)NCCCN1CCCC1=O | 
< 0.1 | 0.1 to 1 | Cc1ccccc1N1CCN(c2cc(Cl)c(C(=O)NCCCN3CCOC3=O)cc2NC(=O)c2coc(C3CC3)n2)CC1 | 
0.1 to 1 |  | Cc1ccc(F)cc1N1CCN(c2cc(Cl)c(C(=O)NCCCN3CCCC3=O)cc2NC(=O)c2coc(C3CC3)n2)CC1 | 
0.1 to 1 |  | Cc1ccccc1N1CCN(c2cc(C(F)(F)F)c(C(=O)NCCCN3CCCC3=O)cc2NC(=O)c2coc(C3CC3)n2)CC1 | 
< 0.1 | 0.1 to 1 | Cc1cccnc1N1CCN(c2cc(Cl)c(C(=O)NCCCN3CCOC3=O)cc2NC(=O)c2coc(C3CC3)n2)CC1 | 
1 to 5 |  | Cc1ccc(F)cc1N1CCN(c2cc(Cl)c(C(=O)NCc3cccc(CN(C)C)c3)cc2NC(=O)c2ccco2)CC1 | 
0.1 to 1 | 1 to 5 | Cc1ccccc1N1CCN(c2cc(Cl)c(C(=O)NCCCc3nnn(C)n3)cc2NC(=O)c2coc(C3CC3)n2)CC1 | 
< 0.1 | 1 to 5 | Cc1ccccc1N1CCN(c2cc(Cl)c(C(=O)N[C@H]3CCC[C@H](O)[C@@H]3O)cc2NC(=O)c2coc(C3CC3)n2)CC1 | 
0.1 to 1 | 0.1 to 1 | Cc1ccccc1N1CCN(c2cc(Cl)c(C(=O)NCCCc3nnnn3C)cc2NC(=O)c2coc(C3CC3)n2)CC1 | 
0.1 to 1 |  | Cc1ccccc1N1CCN(c2cc(Cl)c(C(=O)NCCC(C)(C)C(=O)O)cc2NC(=O)c2coc(C3CC3)n2)CC1 | Assay B: percental effect (response) (Rat Granulosa; @ 25 μM): 46% @ 25 μM
0.1 to 1 | 1 to 5 | Cc1ccccc1N1CCN(c2cc(F)c(C(=O)NCCCN3CCOC3=O)cc2NC(=O)c2coc(C3CC3)n2)CC1 | 

The next lines start with the molecule.

SMILES | EC50 (FSHR) [µM] | EC50 (Rat Granulosa) [µM] | other results
Cc1ccccc1N1CCN(c2c(NC(=O)c3coc(C4CC4)n3)cc(C(=O)NCCCN3CCCC3=O)cc2C(F)(F)F)CC1 | 1 to 5 |  | 
Cc1ccccc1N1CCN(c2c(NC(=O)c3ccco3)cc(C(=O)NCCCN3CCCC3=O)cc2C(F)(F)F)CC1 |  |  | Emax at 3 µM (FSHR; @ 3 μM, read-out: Assay A: percental effect (response) relative to the maximum response of the FSH standard): 39%
Cc1ccccc1N1CCN(c2cc3c(cc2NC(=O)c2coc(C4CC4)n2)C(=O)N(CCCN2CCCC2=O)CC3)CC1 | < 0.1 |  | Assay B: percental effect (response) (Rat Granulosa; @ 5 μM): 133% @ 5 μM
Cc1ccccc1N1CCN(c2cc(C3CC3)c(C(=O)NCCCN3CCCC3=O)cc2NC(=O)c2ccco2)CC1 | 1 to 5 |  | 
Cc1ccccc1N1CCN(c2cc(C3CC3)c(C(=O)NCCCN3CCCC3=O)cc2NC(=O)c2coc(C3CC3)n2)CC1 | 0.1 to 1 |  | 
Cc1ccccc1N1CCN(c2cc(N(C)C)c(C(=O)NCCCN3CCCC3=O)cc2NC(=O)c2ccco2)CC1 | 1 to 5 |  | 
COCCOc1cc(N2CCN(c3ccccc3C)CC2)c(NC(=O)c2coc(C3CC3)n2)cc1C(=O)NCCCN1CCCC1=O | 0.1 to 1 | 0.1 to 1 | 
CCOc1cc(N2CCN(c3ccccc3C)CC2)c(NC(=O)c2ccco2)cc1C(=O)NCCCN1CCCC1=O | 1 to 5 |  | 
Cc1ccc(C(=O)Nc2cc(C(=O)NCCCN3CCOC3=O)c(Cl)cc2N2CCN(c3ccccc3C)CC2)o1 | 0.1 to 1 |  | 
Cc1ccccc1N1CCN(c2cc3c(cc2NC(=O)c2ccco2)C(=O)N(Cc2cccc(CN(C)C)c2)CC3)CC1 | 1 to 5 |  | 
Cc1ccccc1N1CCN(c2cc(F)c(C(=O)N[C@H]3CCC[C@H](C(=O)OC(C)(C)C)C3)cc2NC(=O)c2coc(C3CC3)n2)CC1 | 0.1 to 1 |  | Assay B: percental effect (response) (Rat Granulosa; concentration not given): 39%
Cc1ccccc1N1CCN(c2cc3c(cc2NC(=O)c2coc(C4CC4)n2)C(=O)N(CCCN2CCOC2=O)CC3)CC1 | < 0.1 | 0.1 to 1 | 
Cc1ccccc1N1CCN(c2cc3c(cc2NC(=O)c2coc(C4CC4)n2)C(=O)N(C2CCC[C@H](O)[C@@H]2O)CC3)CC1 (stereo partly shown) |  | 1 to 5 | 
Cc1ccccc1N1CCN(c2cc3c(cc2NC(=O)c2coc(C4CC4)n2)C(=O)N([C@H]2CCC[C@H](O)[C@@H]2O)CC3)CC1 | 0.1 to 1 |  | 
Cc1ccccc1N1CCN(c2cc(F)c(C(=O)N[C@H]3CCC[C@@H](C(=O)OC(C)(C)C)C3)cc2NC(=O)c2coc(C3CC3)n2)CC1 | > 5 |  | Assay B: percental effect (response) (Rat Granulosa; concentration not given): 11%
Cc1ccccc1N1CCN(c2cc(F)c(C(=O)N[C@@H]3CCC[C@H](C(=O)OC(C)(C)C)C3)cc2NC(=O)c2coc(C3CC3)n2)CC1 | 0.1 to 1 | < 0.1 | 
Cc1ccccc1N1CCN(c2cc(F)c(C(=O)N[C@H]3CCC[C@@H](C(=O)O)C3)cc2NC(=O)c2coc(C3CC3)n2)CC1 | < 0.1 |  | 
COC(=O)[C@@H]1CCC[C@H](NC(=O)c2cc(NC(=O)c3coc(C4CC4)n3)c(N3CCN(c4ccccc4C)CC3)cc2F)C1 | 0.1 to 1 |  | 
Cc1ccccc1N1CCN(c2cc(F)c(C(=O)N[C@@H]3CCC[C@H](C(=O)O)C3)cc2NC(=O)c2coc(C3CC3)n2)CC1 | < 0.1 |  | 
Cc1ccccc1N1CCN(c2cc3ccn(CCCN4CCOC4=O)c(=O)c3cc2NC(=O)c2coc(C3CC3)n2)CC1 | < 0.1 |  | 
